This is an account of results in patent US12679878B2, “CRF2 receptor agonists and their use in therapy” (SANOFI, priority 2020, dated 2026).

In general, EC50 refers to the concentration giving half of the maximal effect. Broadly, the Emax is the maximal effect, on the per cent scale that the assay sets. Broadly, the solubility is the concentration that dissolves in the medium under given conditions. A lower solubility goes with a poorly soluble substance.

The structures appear in SMILES notation. In brackets after ≈: the same amount, converted by molar mass. Where two headings read alike, the source gives them in different places. Starred links: 1 amine or outer side, 2 acyl side, 3 side chain; linkers in the order of their positions; H or OH if unused. Non-standard residues stand in square brackets, D forms with d. Residues, ends and D or L forms follow the SMILES beside them. Groups on a side chain read outwards from the residue. *: point of attachment. C18 diacid = O=C(O)CCCCCCCCCCCCCCCCC(=O)*; γGlu = O=C(O)[C@H](CCC(=O)[*:2])N[*:1]; AEEA = NCCOCCOCC(=O)O; Aib = CC(C)(N)C(=O)O

Data set [1] has as its target T1, CRF1R receptor (Homo sapiens, UniProt P34998).
T1 construct: host or cells: CHO-K1 clone 2
T1 sequence (P34998 24-415): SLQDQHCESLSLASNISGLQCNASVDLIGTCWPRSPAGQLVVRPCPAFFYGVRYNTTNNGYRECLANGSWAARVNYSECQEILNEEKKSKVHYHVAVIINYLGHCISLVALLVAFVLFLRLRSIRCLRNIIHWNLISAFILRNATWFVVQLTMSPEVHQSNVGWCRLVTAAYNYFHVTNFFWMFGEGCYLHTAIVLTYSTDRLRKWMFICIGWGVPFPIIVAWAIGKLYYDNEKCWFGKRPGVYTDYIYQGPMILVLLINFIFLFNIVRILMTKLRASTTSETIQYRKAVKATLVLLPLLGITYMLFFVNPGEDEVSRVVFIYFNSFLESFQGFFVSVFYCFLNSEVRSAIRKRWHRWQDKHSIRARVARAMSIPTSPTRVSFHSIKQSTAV
Put plainly: cAMP activity at anti-target CRF1R, CRF1R-overexpression CHO cell line (Example 9). Format: cell-based. The settings on record: CRF1R-overexpression CHO cell line; for EC50: 0% HSA; for Emax: read-out: Emax (%). The gist of the method: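 cAMP accumulation was read by HTRF after 30 min at room temperature of compound treatment. Cells were cryopreserved CHO cells overexpressing CRF1R, plated at 2000/well in IBMX (2 mM)-containing HBSS/HEPES buffer with 0 or 0.1% HSA. Activity was normalized to 1000 nM UCN2 as 100%.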

Data set [2] concerns the target T2, human CRF2α receptor (Homo sapiens, UniProt Q13324).
T2 construct: expressed in transfected cells; host or cells: TeloHEAC
T2 sequence (Q13324 1-411): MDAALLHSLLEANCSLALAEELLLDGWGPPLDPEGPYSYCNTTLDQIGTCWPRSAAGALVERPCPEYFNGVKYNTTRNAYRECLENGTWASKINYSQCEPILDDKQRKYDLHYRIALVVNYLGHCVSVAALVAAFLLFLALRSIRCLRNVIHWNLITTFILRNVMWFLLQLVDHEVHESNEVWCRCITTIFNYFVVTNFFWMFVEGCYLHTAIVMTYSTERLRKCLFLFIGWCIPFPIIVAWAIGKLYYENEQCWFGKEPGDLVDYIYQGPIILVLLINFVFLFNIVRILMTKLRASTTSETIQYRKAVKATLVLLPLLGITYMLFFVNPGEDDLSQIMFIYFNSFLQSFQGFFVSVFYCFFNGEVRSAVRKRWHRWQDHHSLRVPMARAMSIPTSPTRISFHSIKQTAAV
As to the kind of experiment: cAMP agonism at human CRF2 α receptor in TeloHEAC cells (Example 7). Format: cell-based. The settings on record: cAMP HTRF, TeloHEAC cells stably expressing human CRF2 α. The gist of the method: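 Cryopreserved cells are thawed, washed and resuspended in IBMX-containing (2 mM) HEPES-buffered HBSS with or without 0.1% HSA. Compound incubation runs 30 min at room temperature with 2000 cells per well, then cAMP is measured by time-resolved FRET. Potency is expressed as EC50, efficacy relative to urocortin 2 at 1000 nM.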

Data set [3] is described as follows: Solubility in buffer systems by UPLC-UV (Example 13). It counts as physicochemical. The gist of the method: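 The supernatant was diluted 1:10 and quantified by UPLC-UV peak area against a reference standard curve, correcting for sequence-based extinction coefficients.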
The subject of data set [4] is rat CRF2R α receptor. Put plainly: cAMP agonism at rat CRF2R α receptor in A7R5 rat aortic smooth muscle cells (Example 8). It counts as cell-based. The following applies: cAMP HTRF, A7R5 rat aortic smooth muscle cell line, 0% HSA. The gist of the method:
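Thawed cryopreserved A7R5 cells in HBSS/20 mM HEPES (0 or 0.1% HSA) with 2 mM IBMX, 2000 cells/well, were exposed to compound for 30 min at room temperature. cAMP was read by HTRF (665/620 nm ratio) after 1 h with lysis reagents. Activity was normalised to 1000 nM urocortin 2 as 100%, and EC50 was taken as the concentration giving 50% of maximal activation.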
A general note: TR-FRET usually uses a lanthanide donor and a delayed reading to cut background.

The nature of data set [5]: Physical stability, Thioflavin T fibrillation assay (Example 14). Format: physicochemical. The following applies: Buffer B: 100 mM acetate buffer, pH 4.5, 2.7 mg/ml m-cresol; 3 mg/ml; 37° C. shaking. Here is the method: The physical stability of the compounds was assessed using a Thioflavin T (ThT) assay.
The time course for fibril formation often follows the characteristic shape of a sigmoidal curve and can be separated into three regions: a lag phase, a fast growth phase, and a plateau phase. The typical fibril formation process starts with the lag phase in which the amount of partially folded peptide turned into fibrils is not significant enough to be detected. The lag-time corresponds to the time the critical mass of the nucleus is built. Afterwards, a drastic elongation phase follows and fibril concentration increases rapidly. Therefore, by measuring the increase in fluorescence intensity attributable to ThT as well as the lag time of the increase, the fibrillation tendency of a peptide can be determined, thereby providing a measure of the physical stability of the peptide.
In the present study, test compounds were diluted in buffer to a final concentration of 3 mg/ml.
The fibrillation tendencies of the peptides were determined under stress using a Fluoroskan Ascent FL or Fluoroskan Ascent fluorometer. […] Plates were sealed with Scotch Tape (Quiagen). Samples were stressed by continuous cycles of 10 s shaking at 960 rpm and 50 s rest period at 37° C. Fibril development was monitored by measuring fluorescence intensity every 20 minutes. For each sample, eight replicates were tested.

Setting [6] is: 0% HSA, read-out: EC50 [nM], 0% HSA.
Where [7] appears, read: pH 4.5, Solubility in Buffer B [mg/ml].
Setting [8] is: pH 7.4, Solubility in Buffer C [mg/ml].

For `CC[C@H](C)[C@H](N)C(=O)N[C@H](C(=O)N[C@@H](CC(C)C)C(=O)N[C@@H](CO)C(=O)N[C@@H](CC(C)C)C(=O)N[C@@H](CC(=O)O)C(=O)N[C@H](C(=O)N1CCC[C@H]1C(=O)N[C@H](C(=O)N[C@@H](CCCCN)C(=O)N[C@@H](CC(C)C)C(=O)N[C@@H](CCCCNC(=O)COCCOCCNC(=O)COCCOCCNC(=O)CC[C@H](NC(=O)CCCCCCCCCCCCCCCCC(=O)O)C(=O)O)C(=O)N[C@@H](CCC(N)=O)C(=O)N[C@H](C(=O)N[C@@H](CC(C)C)C(=O)N[C@@H](CC(C)C)C(=O)N[C@@H](CCC(=O)O)C(=O)N[C@@H](CCC(N)=O)C(=O)N[C@@H](CCC(=O)O)C(=O)N[C@@H](CCCCN)C(=O)N[C@@H](CCC(N)=O)C(=O)N[C@@H](CCCCN)C(=O)N[C@@H](CCCCN)C(=O)N[C@@H](CCC(N)=O)C(=O)N[C@@H](CCCNC(=N)N)C(=O)N[C@@H](CCC(=O)O)C(=O)N[C@@H](CCC(N)=O)C(=O)N[C@@H](C)C(=O)N[C@@H](CCC(=O)O)C(=O)N[C@H](C(=O)N[C@@H](CC(N)=O)C(=O)N[C@@H](CCCCN)C(=O)N[C@@H](CCC(N)=O)C(=O)N[C@H](C(=O)N[C@@H](CC(C)C)C(=O)N[C@@H](C)C(=O)N[C@@H](CCC(N)=O)C(=O)N[C@H](C(N)=O)C(C)C)[C@@H](C)CC)[C@@H](C)O)[C@@H](C)CC)[C@@H](C)CC)C(C)C)C(C)C` [compound 67] (H-IVLSLDVPIKLK([AEEA-AEEA-γGlu-C18 diacid])QILLEQEKQKKQREQAETNKQILAQV-NH2; N-terminus assumed), the EC50 is greater than 1000 nM in data set [1], 0.57 nM in data set [2] (setting [6]) and 0.66 nM in data set [4]. Further, the Emax in data set [1] amounted to 9.18%. In addition, the solubility at 1 h in data set [3] (setting [7]) stood at 6800 µg/mL (≈ 1320 µM); in data set [3] (setting [8]), 7500 µg/mL (≈ 1450 µM).

As for `CC[C@H](C)[C@H](N)C(=O)N[C@H](C(=O)N[C@@H](CC(C)C)C(=O)N[C@@H](CO)C(=O)N[C@@H](CC(C)C)C(=O)N[C@@H](CC(=O)O)C(=O)N[C@H](C(=O)N1CCC[C@H]1C(=O)N[C@H](C(=O)N[C@@H](CCCCN)C(=O)N[C@@H](CC(C)C)C(=O)N[C@@H](CCCCNC(=O)COCCOCCNC(=O)COCCOCCNC(=O)CC[C@H](NC(=O)CCCCCCCCCCCCCCCCC(=O)O)C(=O)O)C(=O)N[C@@H](CCC(N)=O)C(=O)N[C@H](C(=O)N[C@@H](CC(C)C)C(=O)N[C@@H](CC(C)C)C(=O)N[C@@H](CCC(=O)O)C(=O)N[C@@H](CCC(N)=O)C(=O)N[C@@H](CCC(=O)O)C(=O)N[C@@H](CCCCN)C(=O)N[C@@H](CCC(N)=O)C(=O)N[C@@H](CCCCN)C(=O)NC(C)(C)C(=O)N[C@@H](CCC(N)=O)C(=O)N[C@@H](CCCNC(=N)N)C(=O)N[C@@H](CCC(=O)O)C(=O)N[C@@H](CCC(N)=O)C(=O)N[C@@H](C)C(=O)N[C@@H](CCC(=O)O)C(=O)N[C@H](C(=O)N[C@@H](CC(N)=O)C(=O)N[C@@H](CCCCN)C(=O)N[C@@H](CCC(N)=O)C(=O)N[C@H](C(=O)N[C@@H](CC(C)C)C(=O)N[C@@H](C)C(=O)N[C@@H](CCC(N)=O)C(=O)N[C@H](C(N)=O)C(C)C)[C@@H](C)CC)[C@@H](C)O)[C@@H](C)CC)[C@@H](C)CC)C(C)C)C(C)C` [compound 79] (H-IVLSLDVPIKLK([AEEA-AEEA-γGlu-C18 diacid])QILLEQEKQK[Aib]QREQAETNKQILAQV-NH2; N-terminus assumed), the EC50 in data set [1] was greater than 1000 nM; in data set [2] (setting [6]) it was 0.46 nM; in data set [4], 3.99 nM. In addition, the Emax in data set [1] came out at 8.74%. In addition, the solubility at 1 h in data set [3] (setting [7]) was 18900 µg/mL (≈ 3700 µM); in data set [3] (setting [8]) it was greater than 8800 µg/mL.

For `CC[C@H](C)[C@H](N)C(=O)N[C@H](C(=O)N[C@@H](CC(C)C)C(=O)N[C@@H](CO)C(=O)N[C@@H](CC(C)C)C(=O)N[C@@H](CC(=O)O)C(=O)N[C@@H](C(=O)N1CCC[C@H]1C(=O)N[C@H](C(=O)N[C@@H](CCCCN)C(=O)N[C@@H](CC(C)C)C(=O)N[C@@H](CCCCNC(=O)COCCOCCNC(=O)COCCOCCNC(=O)CC[C@H](NC(=O)CCCCCCCCCCCCCCCCC(=O)O)C(=O)O)C(=O)N[C@@H](CCC(N)=O)C(=O)N[C@H](C(=O)N[C@@H](CC(C)C)C(=O)N[C@@H](CC(C)C)C(=O)N[C@@H](CCC(=O)O)C(=O)N[C@@H](CCC(N)=O)C(=O)N[C@@H](CCC(=O)O)C(=O)N[C@@H](CCCNC(=N)N)C(=O)N[C@@H](CCC(N)=O)C(=O)N[C@@H](CCCCN)C(=O)NC(C)(C)C(=O)N[C@@H](CCC(N)=O)C(=O)N[C@@H](CCCNC(=N)N)C(=O)N[C@@H](CCC(N)=O)C(=O)N[C@@H](CCC(N)=O)C(=O)N[C@@H](C)C(=O)N[C@@H](CCC(=O)O)C(=O)N[C@@H](CCCCN)C(=O)N[C@@H](CC(N)=O)C(=O)N[C@@H](CCCCN)C(=O)N[C@@H](CCC(N)=O)C(=O)N[C@H](C(=O)N[C@@H](CC(C)C)C(=O)N[C@@H](C)C(=O)N[C@@H](CCC(N)=O)C(=O)N[C@H](C(N)=O)C(C)C)[C@@H](C)CC)[C@@H](C)CC)[C@@H](C)CC)C(C)C)C(C)C` [compound 131] (H-IVLSLD[dV]PIKLK([AEEA-AEEA-γGlu-C18 diacid])QILLEQERQK[Aib]QRQQAEKNKQILAQV-NH2), the “Increase in FI (fluorescence intensity)” value in data set [5] was “No”. In addition, in data set [5], the “Lag time” value is listed as greater than 45 h. In addition, the EC50 was 0.11 nM in data set [2] (setting [6]); 2.44 nM in data set [2] (0.1% HSA, read-out: EC50 [nM], 0.1% HSA); 0.39 nM in data set [4].
